Experimental data as given in patent publication US9271978B2 (Zenith Epigenetics Corp., priority 2012, dated 2016).

Legend:
[1] = molecular target: T1, Brd4 bromodomain 1 (BRD4(1)) (Homo sapiens, UniProt O60885); assay: Inhibition of tetra-acetylated histone H4 binding to Brd4 bromodomain 1 (TR-FRET); design: key: Active: Compounds with an IC50 value less than 30 μM were deemed to be active.; Not Active: Compounds with an IC50 value less than 30 μM were deemed to be active; settings: tetra-acetylated histone H4 peptide, active = IC50 <30 μM
T1 construct: Illustrative results with the first bromodomain of Brd4; made in house; host or cells: E. coli BL21 (DE3)
Summary of the method: (§1)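 IC50 values come from dose-response curves of the 665 nm to 620 nm TR-FRET signal decrease, measured after 2 h at room temperature. Reactions contained 200 nM E. coli-expressed His-tagged bromodomain, 25-50 nM biotinylated tetra-acetylated H4 peptide, Eu-streptavidin plus XL665 anti-His antibody, with 30 mM HEPES pH 7.4, 320 mM KF and 0.2% DMSO.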

[2] = molecular target: T2, second bromodomain of Brd2 (BRD2(2)) (Homo sapiens, UniProt P25440); assay: Inhibition of tetra-acetylated histone H4 binding to Brd2 bromodomain 2 (TR-FRET); design: key: Active: Compounds with an IC50 value less than 30 μM were deemed to be active.; Not Active: Compounds with an IC50 value less than 30 μM were deemed to be active; settings: tetra-acetylated histone H4 peptide, active = IC50 <30 μM
T2 construct: made in house; host or cells: E. coli BL21 (DE3)
T2 sequence (P25440 344-453 limits assumed): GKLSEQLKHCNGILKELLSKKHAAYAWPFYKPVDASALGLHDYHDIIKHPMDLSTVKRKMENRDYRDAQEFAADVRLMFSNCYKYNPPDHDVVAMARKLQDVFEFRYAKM
Summary of the method: as §1

[3] = tested on: human AML MV-4-11 (CRL-9591) cells; assay: Inhibition of cell proliferation in MV4-11 cells; format: cell-based; design: key: Active: Compounds with an IC50 value less than 30 μM were deemed to be active.; Not Active: Compounds with an IC50 value less than 30 μM were deemed to be active; settings: human AML MV-4-11 cells, 72 h; active = IC50 <30 μM
Summary of the method: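 IC50 values come from blank-corrected proliferation relative to DMSO controls, read as 490 nm absorbance 3–4 h after CellTiter Aqueous One addition. Before that, cells seeded at 5×10^4/well were exposed for 72 h (37° C, 5% CO2) to triplicate two-fold compound dilutions spanning 30–0.2 μM.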

[4] = tested on: hIL-6 mRNA; assay: Inhibition of hIL-6 mRNA transcription in U937 cells; format: cell-based, human; design: key: Active: Compounds with an IC50 value less than 30 μM were deemed to be active.; Not Active: Compounds with an IC50 value less than 30 μM were deemed to be active; settings: LPS stimulation, active = IC50 <30 μM
Summary of the method: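 Readout is one-step real-time PCR of hIL-6 mRNA, normalized to an internal control and given as fold induction versus control. Cells: PMA (60 ng/mL, 3 days)-differentiated U937 macrophages, compound added 1 h before 1 ug/mL LPS, harvested after 3 h at 37° C.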

[5] = tested on: c-myc; assay: Inhibition of c-myc expression in MV4-11 cells (mRNA, real-time PCR); format: cell-based; design: key: Active: Compounds with an IC50 value less than 30 μM were deemed to be active.; Not Active: Compounds with an IC50 value less than 30 μM were deemed to be active; settings: Human AML MV4-11 cells, 3 h incubation
Summary of the method: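 Duplex RT-qPCR of c-myc against cyclophilin cDNA gave IC50 from a dose–response curve. Input was isolated mRNA from 2.5×10^4 MV4-11 cells after 3 h exposure at 37 °C to compound or 0.1% DMSO vehicle.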

[6] = tested on: ApoA-I mRNA; assay: Up-regulation of hApoA-1 mRNA transcription in Huh7 cells; format: cell-based, human; design: key: Active: Compounds with an EC170 value less than 30 μM were deemed to be active; settings: 48 h treatment, ApoA-I mRNA by real-time PCR, Active = EC170 less than 30 μM
Summary of the method: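 Huh7 cells treated with compound for 48 h. ApoA-I mRNA was then quantified in captured mRNA by one-step real-time RT-PCR. Fold induction calculated from Ct values relative to the matching DMSO control; EC170 is the concentration for 170% of control expression.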

FRET activity (IC50 <30 μM) BRD4(1) [1] | melting point [°C] | FRET activity (IC50 <30 μM) BRD2(2) [2] | Cell Proliferation activity (IC50 <30 μM) [3] | IL-6 activity (IC50 <30 μM) [4] | c-myc activity (IC50 <30 μM) [5] | SMILES | ApoA-1 activity (EC170 <30 μM) [6]
Active | 159 to 161 | Active | – | – | – | Cc1noc(C)c1-c1cn(Cc2ccccc2)c(=O)c2ccncc12 [Example 176, 2-Benzyl-4-(3,5-dimethylisoxazol-4-yl)-2,6-naphthyridin-1(2H)-one] | –
Active | 192 to 195 | Active | – | – | – | Cc1noc(C)c1-c1cn(Cc2ccccc2)c(=O)c2cccnc12 [Example 173, 6-Benzyl-8-(3,5-dimethylisoxazol-4-yl)-1,6-naphthyridin-5(6H)-one] | –
Active | 168 to 170 | Active | – | – | – | Cc1noc(C)c1-c1cn(Cc2ccccc2)c(=O)c2ncccc12 [Example 174, 7-Benzyl-5-(3,5-dimethylisoxazol-4-yl)-1,7-naphthyridin-8(7H)-one] | –
Active | – | Active | Active | Active | Active | COc1ccccc1Cn1cc(-c2c(C)noc2C)ccc1=O [Example 162, 5-(3,5-Dimethylisoxazol-4-yl)-1-(2-methoxybenzyl)pyridin-2(1H)-one] | Active
Active | 139 to 141 | Active | Active | Active | Not Active | Cc1noc(C)c1-c1cn(Cc2ccccc2)c(=O)c2ccccc12 [Example 167, 2-Benzyl-4-(3,5-dimethylisoxazol-4-yl)isoquinolin-1(2H)-one] | –
Active | – | Active | Active | Active | Active | Cc1noc(C)c1-c1ccc(=O)n(C(C)c2ccc(Cl)cc2)c1 (stereo not drawn) [Example 105, 1-(1-(4-Chlorophenyl)ethyl)-5-(3,5-dimethylisoxazol-4-yl)pyridin-2(1H)-one] | Active
Active | 174 to 177 | Active | – | – | – | Cc1noc(C)c1-c1cn(Cc2ccccc2)c(=O)c2cnccc12 [Example 175, 2-Benzyl-4-(3,5-dimethylisoxazol-4-yl)-2,7-naphthyridin-1(2H)-one] | –
Active | – | Active | Active | Active | Active | Cc1noc(C)c1-c1ccc(=O)n(Cc2ccc(OC(F)(F)F)cc2)c1 [Example 5, 5-(3,5-Dimethylisoxazol-4-yl)-1-(4-(trifluoromethoxy)benzyl)pyridin-2(1H)-one] | Active
Active | – | Active | Active | Active | Active | Cc1noc(C)c1-c1ccc(=O)n([C@@H](C)c2ccccc2)n1 [Example 109, (S)-6-(3,5-Dimethylisoxazol-4-yl)-2-(1-phenylethyl)pyridazin-3(2H)-one] | Active

More lines, now with the values behind:

SMILES | FRET activity (IC50 <30 μM) BRD4(1) [1] | melting point [°C] | FRET activity (IC50 <30 μM) BRD2(2) [2] | Cell Proliferation activity (IC50 <30 μM) [3] | IL-6 activity (IC50 <30 μM) [4] | c-myc activity (IC50 <30 μM) [5] | ApoA-1 activity (EC170 <30 μM) [6]
COc1ccc(-c2cn(Cc3ccccc3)c(=O)c3ccccc23)cc1OC [Example 166, 2-Benzyl-4-(3,4-dimethoxyphenyl)isoquinolin-1(2H)-one] | Active | 174 to 176 | Not Active | – | – | – | –
COc1cc(-c2nn(Cc3ccccc3)c(=O)c3ccccc23)ccc1O [Example 165, 2-Benzyl-4-(4-hydroxy-3-methoxyphenyl)-2H-phthalazin-1-one] | Active | 197 to 200 | Active | Active | Active | Active | –
COc1cc(-c2cn(Cc3ccccc3)c(=O)c3ccccc23)cc(OC)c1OC [Example 168, 2-Benzyl-4-(3,4,5-trimethoxyphenyl)isoquinolin-1(2H)-one] | Not Active | 166 to 168 | Active | Active | Not Active | Not Active | –
COc1cc(Nc2nn(Cc3ccccc3)c(=O)c3ccccc23)cc(OC)c1OC [Example 171, 2-Benzyl-4-(3,4,5-trimethoxyphenylamino)-2H-phthalazin-1-one] | Active | 206 to 207 | Active | Active | Active | Active | –
COc1cc(Nc2cn(Cc3ccccc3)c(=O)c3ccccc23)cc(OC)c1OC [Example 172, 2-Benzyl-4-((3,4,5-trimethoxyphenyl)amino)isoquinolin-1(2H)-one] | Active | 162 to 164 | Active | Active | Active | Not Active | –
COc1cc(-c2ccc(=O)n(Cc3ccccc3)c2)cc(OC)c1OC [Example 52, 1-Benzyl-5-(3,4,5-trimethoxyphenyl)pyridin-2(1H)-one] | Active | – | Active | Not Active | Active | Not Active | Active
COc1cc(Nc2ccc(=O)n(Cc3ccccc3)n2)cc(OC)c1OC [Example 54, 2-Benzyl-6-((3,4,5-trimethoxyphenyl)amino)pyridazin-3(2H)-one] | Active | – | Active | Active | Active | Active | Active
COc1cc(-c2ccc(=O)n(Cc3ccccc3C#N)n2)cc(OC)c1OC [Example 118, 2-((6-Oxo-3-(3,4,5-trimethoxyphenyl)pyridazin-1(6H)-yl)methyl)benzonitrile] | Active | – | Active | Active | Active | Not Active | Active
COc1cc(-c2ccc(=O)n(Cc3ccccc3)n2)ccc1O [Example 83, 2-Benzyl-6-(4-hydroxy-3-methoxyphenyl)pyridazin-3(2H)-one] | Active | – | Active | Active | Active | Not Active | Active
